Structures are written as SMILES.

This note sets out measurements from publication PMC7838199, “Color-tunable bioluminescence imaging portfolio for cell imaging” (Scientific Reports, 2021).

The target in one assay is T1, NanoLuc (Oplophorus gracilirostris, UniProt Q9GV45, A31E/Q38R/Q45L/L54V/A60N/K70R/V71I/A81I/F95D/L99Q/M102K/I117V/P142E/Q151K/Y165I/N193R).
T1 construct: pcDNA3.1(+) in MDA-MB-231 cells, lysate
T1 sequence (Q9GV45 28-196 with the stated changes): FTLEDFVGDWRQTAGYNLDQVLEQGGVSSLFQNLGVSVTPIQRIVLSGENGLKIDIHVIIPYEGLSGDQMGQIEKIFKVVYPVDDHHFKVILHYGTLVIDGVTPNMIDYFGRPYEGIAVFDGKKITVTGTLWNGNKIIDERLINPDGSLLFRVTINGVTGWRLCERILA
In words: bioluminescence spectrum in transfected-cell lysate. Format: cell-based. The note with it: 50 mM HEPES, pH 7.2; MDA-MB-231 lysate.
With `O=c1c(Cc2ccccc2)nc2c(-c3ccccc3)[nH]c(-c3ccccc3)cn1-2` [3d], the “bioluminescence spectrum in transfected-cell lysate” value is recorded as 3d selectively emits significant BL with NanoLuc.

A further assay has as its system T2, Artificial Luciferase 16 (ALuc16).
T2 construct: designed artificial luciferase; recombinant for the kinetics; cDNA in pcDNA3.1(+) for cell work
In words: bioluminescence, Lineweaver-Burk. Format: biochemical, synthetic construct. The note with it: 50 mM HEPES, pH 7.2; 0.1 µM luciferase. The source says:
bioluminescence, Lineweaver-Burk on Artificial Luciferase 16 (ALuc16)
Turning to `CN(C)c1ccc(/C=C/C=C/C=C/c2cn3c(=O)c(Cc4ccc(O)cc4)nc-3c(Cc3ccccc3)[nH]2)cc1` [1d], the Km came out at 70.6 µM.
As to `CN(C)c1ccc(/C=C/c2cn3c(=O)c(Cc4ccc(O)cc4)nc-3c(Cc3ccccc3)[nH]2)cc1` [1b], the Km amounted to 7.9 µM.
The same measure, in the same setting: as for `CN(C)c1ccc(/C=C/C=C/c2cn3c(=O)c(Cc4ccccc4)nc-3c(-c3ccccc3)[nH]2)cc1` [2c], the figure is 157 µM; as for `CN(C)c1ccc(/C=C/C=C/c2cn3c(=O)c(Cc4ccc(O)cc4)nc-3c(Cc3ccccc3)[nH]2)cc1` [1c], 26.1 µM; as for `CN(C)c1ccc(/C=C/C=C/C=C/c2cn3c(=O)c(Cc4ccccc4)nc-3c(-c3ccccc3)[nH]2)cc1` [2d], 86.5 µM.
The same measure, in the same setting: as for `O=c1c(Cc2ccccc2)nc2c(-c3ccccc3)[nH]c(-c3ccccc3)cn1-2` [3d], the figure is 120 µM; as for `O=c1c(Cc2ccccc2)nc2c(-c3ccccc3)[nH]c(-c3ccncc3)cn1-2` [3c], 68.3 µM.
Take `Oc1ccc(Cc2nc3c(Cc4ccccc4)nc(-c4ccc(O)cc4)cn3c2O)cc1` [CTZ, coelenterazine]: the Km turned out to be 38.5 µM.
